Assay results: patent US12077503B2, “Substituted cyclic amides and their use as herbicides” (FMC CORPORATION, priority 2015, dated 2024)

Assays:
Assay type in all cases: in vivo
[1] = test system: barnyardgrass (Echinochloa crus-galli); test: Test B flooded paddy test; details: Echinochloa crus-galli, 250 g ai/ha, Flood; 0 to 100 scale where 0 is no effect and 100 is complete control; read-out: Barnyardgrass plant response rating
Method in brief: (§1)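 Response scored visually against untreated controls, 0 = no effect and 100 = complete control, 13–15 d after treatment in the greenhouse. Compounds added to paddy water held 3 cm above soil surface. Treatment given at 2-leaf stage.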

rice (Oryra sativa) = test: Test B flooded paddy test; details: Oryza sativa, 250 g ai/ha, Flood; 0 to 100 scale where 0 is no effect and 100 is complete control; read-out: Rice plant response rating
Method in brief: as §1

[2] = test system: ducksalad (Heteranthera limosa); test: Test B flooded paddy test; details: Heteranthera limosa, 250 g ai/ha, Flood; 0 to 100 scale where 0 is no effect and 100 is complete control; read-out: Ducksalad plant response rating
Method in brief: as §1

[3] = test system: sedge, umbrella (small-flower umbrella sedge, Cyperus difformis); test: Test B flooded paddy test; details: Cyperus difformis, 250 g ai/ha, Flood; 0 to 100 scale where 0 is no effect and 100 is complete control; read-out: Sedge, Umbrella plant response rating
Method in brief: as §1

[4] = test system: pigweed (Amaranthus retroflexus); test: Test A postemergence; details: Amaranthus retroflexus, post-emergence, 240 h, Postemergence, read-out: Pigweed plant response rating (0 to 100 scale); for pest or weed control at 125 g/ha: 125 g ai/ha, visual rating about 10 d after treatment; for pest or weed control at 31 g/ha: 31 g ai/ha, 0 is no effect, 100 is complete control
Method in brief: (§2)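 Visual injury scores from 0, no effect, to 100, complete control, were assigned versus untreated controls roughly 10 d after treatment in the greenhouse. Test chemicals, formulated with surfactant in a non-phytotoxic solvent, were applied to planted seeds as a preemergence soil spray or postemergence to one- to two-leaf plants 2 to 10 cm tall, in loam–sand soil.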

[5] = test system: Galium (catchweed bedstraw, Galium aparine); test: Test A postemergence; details: Galium, post-emergence, 240 h, Postemergence, read-out: Galium plant response rating (0 to 100 scale); for pest or weed control at 125 g/ha: 125 g ai/ha, visual rating about 10 d after treatment; for pest or weed control at 31 g/ha: 31 g ai/ha, 0 is no effect, 100 is complete control
Method in brief: as §2

[6] = test system: barnyardgrass (Echinochloa crus-galli); test: Test A postemergence; details: Echinochloa crus-galli, post-emergence, 240 h, Postemergence; for pest or weed control at 125 g/ha: 125 g ai/ha, visual rating about 10 d after treatment, read-out: Barnyardgrass plant response rating (0 to 100 scale, 0 no effect, 100 complete control); for pest or weed control at 31 g/ha: 31 g ai/ha, 0 is no effect, 100 is complete control, read-out: Barnyardgrass plant response rating (0 to 100 scale)
Method in brief: as §2

[7] = test system: giant foxtail (Setaria faberii); test: Test A postemergence; details: Setaria faberi, post-emergence, 240 h, Postemergence, read-out: Foxtail, Giant plant response rating (0 to 100 scale); for pest or weed control at 125 g/ha: 125 g ai/ha, visual rating about 10 d after treatment; for pest or weed control at 31 g/ha: 31 g ai/ha, 0 is no effect, 100 is complete control
Method in brief: as §2

[8] = test system: blackgrass (Alopecurus myosuroides); test: Test A postemergence; details: Alopecurus myosuroides, post-emergence, 240 h, Postemergence, read-out: Blackgrass plant response rating (0 to 100 scale); for pest or weed control at 125 g/ha: 125 g ai/ha, visual rating about 10 d after treatment; for pest or weed control at 31 g/ha: 31 g ai/ha, 0 is no effect, 100 is complete control
Method in brief: as §2

[9] = test system: ryegrass, Italian (Italian ryegrass, Lolium multiflorum); test: Test A postemergence; details: Lolium multiflorum, post-emergence, 240 h, Postemergence, read-out: Ryegrass, Italian plant response rating (0 to 100 scale); for pest or weed control at 125 g/ha: 125 g ai/ha, visual rating about 10 d after treatment; for pest or weed control at 31 g/ha: 31 g ai/ha, 0 is no effect, 100 is complete control
Method in brief: as §2

[10] = test system: ragweed (common ragweed, Ambrosia elatior); test: Test A postemergence; details: Ambrosia artemisiifolia, post-emergence, 240 h, Postemergence, read-out: Ragweed plant response rating (0 to 100 scale); for pest or weed control at 125 g/ha: 125 g ai/ha, visual rating about 10 d after treatment; for pest or weed control at 31 g/ha: 31 g ai/ha, 0 is no effect, 100 is complete control
Method in brief: as §2

[11] = test system: wheat (Triticum aestivum); test: Test A postemergence; details: Triticum aestivum, post-emergence, 240 h, Postemergence, read-out: Wheat plant response rating (0 to 100 scale); for plant injury at 125 g/ha: 125 g ai/ha, visual rating about 10 d after treatment; for plant injury at 31 g/ha: 31 g ai/ha, 0 is no effect, 100 is complete control
Method in brief: as §2

Kochia (Kochia scoparia) [12] = test: Test A postemergence; details: Bassia scoparia, post-emergence, 240 h, Postemergence, read-out: Kochia plant response rating (0 to 100 scale); for pest or weed control at 125 g/ha: 125 g ai/ha, visual rating about 10 d after treatment; for pest or weed control at 31 g/ha: 31 g ai/ha, 0 is no effect, 100 is complete control
Method in brief: as §2

corn (Zea mays) = test: Test A postemergence; details: Zea mays, post-emergence, 240 h, Postemergence, read-out: Corn plant response rating (0 to 100 scale); for plant injury at 125 g/ha: 125 g ai/ha, visual rating about 10 d after treatment; for plant injury at 31 g/ha: 31 g ai/ha, 0 is no effect, 100 is complete control
Method in brief: as §2

[13] = test system: pigweed (Amaranthus retroflexus); test: Test A preemergence; details: Amaranthus retroflexus, pre-emergence, 240 h, 0 to 100 scale where 0 is no effect and 100 is complete control, read-out: Pigweed plant response rating; for pest or weed control at 31 g/ha: 31 g ai/ha, Preemergence; for pest or weed control at 125 g/ha: 125 g ai/ha, preemergence, visual injury rating, approximately 10 d
[14] = test system: barnyardgrass (Echinochloa crus-galli); test: Test A preemergence; details: Echinochloa crus-galli, pre-emergence, 240 h, 0 to 100 scale where 0 is no effect and 100 is complete control, read-out: Barnyardgrass plant response rating; for pest or weed control at 31 g/ha: 31 g ai/ha, Preemergence; for pest or weed control at 125 g/ha: 125 g ai/ha, preemergence, visual injury rating, approximately 10 d
Method in brief: as §2

[15] = test system: giant foxtail (Setaria faberii); test: Test A preemergence; details: Setaria faberi, pre-emergence, 240 h, 0 to 100 scale where 0 is no effect and 100 is complete control, read-out: Foxtail, Giant plant response rating; for pest or weed control at 31 g/ha: 31 g ai/ha, Preemergence; for pest or weed control at 125 g/ha: 125 g ai/ha, preemergence, visual injury rating, approximately 10 d
Method in brief: as §2

[16] = test system: ryegrass, Italian (Italian ryegrass, Lolium multiflorum); test: Test A preemergence; details: Lolium multiflorum, pre-emergence, 240 h, 0 to 100 scale where 0 is no effect and 100 is complete control, read-out: Ryegrass, Italian plant response rating; for pest or weed control at 31 g/ha: 31 g ai/ha, Preemergence; for pest or weed control at 125 g/ha: 125 g ai/ha, preemergence, visual injury rating, approximately 10 d
Method in brief: as §2

[17] = test system: ragweed (common ragweed, Ambrosia elatior); test: Test A preemergence; details: Ambrosia artemisiifolia, pre-emergence, 240 h, 0 to 100 scale where 0 is no effect and 100 is complete control, read-out: Ragweed plant response rating; for pest or weed control at 31 g/ha: 31 g ai/ha, Preemergence; for pest or weed control at 125 g/ha: 125 g ai/ha, preemergence, visual injury rating, approximately 10 d
Method in brief: as §2

Kochia (Kochia scoparia) [18] = test: Test A preemergence; details: Bassia scoparia, pre-emergence, 240 h, 0 to 100 scale where 0 is no effect and 100 is complete control, read-out: Kochia plant response rating; for pest or weed control at 31 g/ha: 31 g ai/ha, Preemergence; for pest or weed control at 125 g/ha: 125 g ai/ha, preemergence, visual injury rating, approximately 10 d
Method in brief: as §2

SMILES | pest or weed control at 250 g/ha [1] [%] | pest or weed control at 250 g/ha (rice (Oryra sativa)) [%] | pest or weed control at 250 g/ha [2] [%] | pest or weed control at 250 g/ha [3] [%] | pest or weed control at 125 g/ha [4] [%] | pest or weed control at 31 g/ha [4] [%] | pest or weed control at 125 g/ha [5] [%] | pest or weed control at 31 g/ha [5] [%] | pest or weed control at 125 g/ha [6] [%] | pest or weed control at 31 g/ha [6] [%] | pest or weed control at 125 g/ha [7] [%] | pest or weed control at 31 g/ha [7] [%] | pest or weed control at 125 g/ha [8] [%] | pest or weed control at 31 g/ha [8] [%] | pest or weed control at 125 g/ha [9] [%] | pest or weed control at 31 g/ha [9] [%] | pest or weed control at 125 g/ha [10] [%] | pest or weed control at 31 g/ha [10] [%] | plant injury at 125 g/ha [11] [%] | plant injury at 31 g/ha [11] [%] | also measured
CN1C[C@H](c2csc3c2CCOC3)[C@@H](C(=O)Nc2ccccc2F)C1=O [Compound 1267] | 90 | 0 | 90 | 0 | 0 | 0 | 0 | 0 | 90 | 60 | 90 | 60 | 0 | 0 | 0 | 0 | 0 | 0 | 0 | 0 | pest or weed control at 125 g/ha (Kochia (Kochia scoparia) [12]): 0%; pest or weed control at 31 g/ha (Kochia (Kochia scoparia) [12]): 0%; plant injury at 125 g/ha (corn (Zea mays)): 0%; plant injury at 31 g/ha (corn (Zea mays)): 0%; pest or weed control at 31 g/ha [13]: 0%; pest or weed control at 125 g/ha [13]: 0%; pest or weed control at 31 g/ha [14]: 90%; pest or weed control at 125 g/ha [14]: 90%; pest or weed control at 31 g/ha [15]: 90%; pest or weed control at 125 g/ha [15]: 90%; pest or weed control at 31 g/ha [16]: 0%; pest or weed control at 125 g/ha [16]: 0%; pest or weed control at 31 g/ha [17]: 0%; pest or weed control at 125 g/ha [17]: 0%; pest or weed control at 31 g/ha (Kochia (Kochia scoparia) [18]): 0%; pest or weed control at 125 g/ha (Kochia (Kochia scoparia) [18]): 0%
CN1C[C@H](c2cc(Cl)cc(Cl)c2)[C@@H](C(=O)Nc2cccc(F)c2F)C1=O [Compound 1270] | 60 | 15 | 80 | 0 | 60 | 40 | 70 | 60 | 90 | 90 | 80 | 60 | 40 | 0 | 30 | 0 | 0 | 0 | 40 | 0 | pest or weed control at 125 g/ha (Kochia (Kochia scoparia) [12]): 60%; pest or weed control at 31 g/ha (Kochia (Kochia scoparia) [12]): 0%; plant injury at 125 g/ha (corn (Zea mays)): 20%; plant injury at 31 g/ha (corn (Zea mays)): 0%; pest or weed control at 31 g/ha [13]: 0%; pest or weed control at 125 g/ha [13]: 40%; pest or weed control at 31 g/ha [14]: 70%; pest or weed control at 125 g/ha [14]: 90%; pest or weed control at 31 g/ha [15]: 90%; pest or weed control at 125 g/ha [15]: 90%; pest or weed control at 31 g/ha [16]: 0%; pest or weed control at 125 g/ha [16]: 40%; pest or weed control at 31 g/ha [17]: 0%; pest or weed control at 125 g/ha [17]: 30%; pest or weed control at 31 g/ha (Kochia (Kochia scoparia) [18]): 40%; pest or weed control at 125 g/ha (Kochia (Kochia scoparia) [18]): 60%
